Results taken from patent publication US20250043349A1, “DEORPHANIZING ODORS USING SINGLE CELL SEQUENCING” (PRESIDENT AND FELLOWS OF HARVARD COLLEGE, priority 2021, published 2025).
One block for each molecule: values may come before it.

Tests used:
olfactory bulb glomeruli = assay: In vivo olfactory bulb imaging of OSN axons (GCaMP glomerular odor responses); design: species or system mouse; details: odor panel, anesthetized mice
Experimental: All surgical procedures were performed in accordance with the guidelines provided by IACUC at Harvard Medical School. Prior to surgery. 4-6 weeks old Omp-IRES-Cre: Ai951) (GCaMP6f) mice, were subcutaneously injected with the analgesic Buprenorphine-SR (1 mg/kg) and anesthetized 1-2 hours later with isoflurane (3% induction. 1-2% maintenance). The skin overlying the left olfactory bulb was retracted and the underlying periosteum was scraped off with a scalpel. The skull was subsequently cleaned with saline and allowed to dry. A 2.5 mm circular craniotomy was made using a biopsy punch (Integra Miltex) taking care not to damage the underlying dura. Gelfoam saturated with cold saline was placed over the craniotomy to reduce swelling and suppress minor bleeds. A custom cranial window was constructed using two circular coverslips (Warner Instruments, 3 mm. #1 thickness). […]
Chronic imaging of the dorsal surface of the olfactory bulb was performed after recovery from the surgery (1-2 weeks) under ketamine (100 mg/kg) and xylazine (10 mg/kg) induced anesthesia, to specifically isolate responses in OSN axons with less modulation from local interneurons and long-range cortical feedback. Depth of anesthesia was assessed every 15 minutes via the toc-pinch reflex and intraperitoneal ketamine was administered at 1/3 concentration of the induction dose for anesthesia maintenance. […]

OR10A6 [1] = target: T1, OR10A6 (Homo sapiens, UniProt Q8NH74); assay: In vivo human act-seq: nasal swab after 1 hour exposure, IEG expression in OSNs; design: endogenous in cells; host or cells: olfactory sensory neurons of a human subject, exposed in vivo and collected by nasal swab; details: human subject
T1 sequence (Q8NH74 1-314): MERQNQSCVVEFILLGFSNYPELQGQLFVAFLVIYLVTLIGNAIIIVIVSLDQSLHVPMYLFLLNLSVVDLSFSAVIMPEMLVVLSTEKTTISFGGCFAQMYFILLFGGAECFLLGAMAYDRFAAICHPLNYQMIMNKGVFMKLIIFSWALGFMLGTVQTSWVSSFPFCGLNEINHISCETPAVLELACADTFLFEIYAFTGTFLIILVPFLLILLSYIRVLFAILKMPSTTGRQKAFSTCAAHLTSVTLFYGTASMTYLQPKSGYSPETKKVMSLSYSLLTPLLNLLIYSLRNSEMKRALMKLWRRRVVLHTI
Experimental: FIG. 16A-16D show in vivo human act-seq data. FIG. 16A depicts a UMAP plot showing olfactory cells obtained from a human subject using a nasal swab after 1 hour exposure to 2-phenylethanol, which smells like rose oil. 1 hour exposure is performed by asking the subject to sniff the odor vial every 2-5 minutes. All major olfactory cell types were identified. OSN: olfactory sensory neuron lineage (progenitors and immature or mature neurons). SUS: sustentacular cells. HBC: horizontal basal cell. MV: microvillar cells. BG: Bowman's gland cells. FIG. 16B examines total count normalized expression of GFY gene (a mature OSN marker) in the UMAP plot. FIG. 16C examines total count normalized expression of immediate early genes (IEG) in OSNs that expressed odorant receptors (OR). […] Horizontal bars indicate mean across cells.

OR10A6 [2] = target: T1, OR10A6; details: previous study (doi.org/10.3390/molecules25204743); cited from earlier work
M72 receptor = details: Arneodo et al. 2018; Zhang et al. 2012; cited from earlier work
M72 (Olfr160) = assay: Act-Seq activation score in OSNs expressing M72; assay type: in vivo, mouse; details: compared with acetophenone
Experimental: Act-Seq (Wu et al., 2017) was performed following odor exposure to quantify odor-evoked responses in each OSN subtype (defined by their expressed OR) across the entire OR repertoire. Mice were habituated to a reversed light cycle for at least for 1 week before odor exposure, transferred to a new disposable cage with regular bedding/food and kept overnight in a satellite animal facility. On the experimental day, each mouse was first transferred to a new empty disposable cage during the dark cycle and habituated for 20 minutes. Empty cages were used to avoid any activation by odorants present within the environments in which the mice were housed. Odors were added to a piece of filter paper (100 μL of odorant) in a 35 mm petri dish and a cotton ball (200 μL of odorant) and placed in each cage. […]
The remaining 169 activation genes that were also considered as HVGs often had weak loadings across multiple GEPs. […] To summarize the effects of odor activation across this set of activation genes, the TPT-expression of these activation genes were z-scored (using means and standard deviations for these genes in the control, acetophenone, and octanal datasets, identified by subsampling equal numbers of cells across all ORs expressed in at least 6 cells across 100 restarts). […] PCA was performed on the differences in z-scored activation gene expression between control and odor conditions. […]

[3] = system: OSN subtypes (odorant receptors, ORs); assay: Act-Seq: scSeq of olfactory epithelium after two-hour odor exposure (IEG expression, activated ORs, activation score); assay type: in vivo, mouse
Experimental: Act-Seq (Wu et al., 2017) was performed following odor exposure to quantify odor-evoked responses in each OSN subtype (defined by their expressed OR) across the entire OR repertoire. Mice were habituated to a reversed light cycle for at least for 1 week before odor exposure, transferred to a new disposable cage with regular bedding/food and kept overnight in a satellite animal facility. On the experimental day, each mouse was first transferred to a new empty disposable cage during the dark cycle and habituated for 20 minutes. Empty cages were used to avoid any activation by odorants present within the environments in which the mice were housed. Odors were added to a piece of filter paper (100 μL of odorant) in a 35 mm petri dish and a cotton ball (200 μL of odorant) and placed in each cage. After 2 hours, mice were euthanized, and dissociation was performed as described below. Odors used in this study were as follows. Dipropylene glycol (DPG, control solvent), and 10% of acetophenone, octanal, 2-hydroxy acetophenone, 4-methyl acetophenone, and methyl salicylate. As a control, mice were exposed to DPG alone for 30 min. This control condition was used to account for any drift in transcriptomes during the overnight housing and habituation periods prior to odor exposure and designed to capture the transcriptome in the state it would have been in the odor-exposed animals prior to odor exposure. […] Act-Seq was also performed using lower concentrations of acetophenone (1.0, 0.1, 0.01%) and 2-hydroxy acetophenone (0.1%, 0.01%). All odor dilutions were made with DPG, and all odors and DPG were obtained from Sigma. To assess the persistence of any transcriptional changes observed as a result of odor exposure, a cohort of mice was exposed to acetophenone or DPG for 2 hours, transferred to new clean regular home cages, and subjected to scSeq after an additional 22 hours.
The main olfactory epithelium was dissected in Earle's Balanced Salt Solution (EBSS, pre-treated with carbogen for at least 5 minutes before each use, Worthington), then transferred to a round-bottomed glass dish containing 750 μL of papain solution (one vial of Papain (Worthington) dissolved in 5 mL of EBSS and then equilibrated 10 minutes at 37° C.) and 100 μL of DNase solution (one vial of DNase-I (Worthington) dissolved in 500 μL of EBSS). Bone was removed from the epithelium under a dissecting microscope and the resulting epithelial tissue was placed in a 5 mL tube (Becton Dickinson) with an additional 1.75 mL of Papain solution and 200 μL of DNase-I solution and rocked gently for-60 minutes at 37° C. The tissue was then gently triturated with a 5 mL pipette 10-15 times, passed through a 40 μm cell strainer (Becton Dickinson), and washed with 1 mL of Hibernate-A medium containing 10% Fetal Bovine Serum (FBS. GIBCO). Filtered cells were transferred to a new 5 mL tube and centrifuged 5 minutes at 300×g. The supernatant was decanted, the cells were washed once with 4 mL Hibernate-A containing 10% FBS and resuspended in 1 mL Hibernate-A containing 0.2% FBS. Importantly, each of the solutions above contained transcriptional inhibitors (5 μg/mL of Actinomycin D, 10 μg/mL of Anisomycin and 10 μM of Triptolide, all obtained from Sigma) for all experiments, especially the Act-Seq experiments, except where noted.
OSN subtypes that were responsive to odorants were identified via a two-step process. First, individual OSNs (as defined by the expressed OR) were determined as activated based on their mean z-scored immediate early genes (IEG) expression. A set of 10 IEGs were used (Btg2, Egr1, Fos, Fosb, Gm13889, Junb, Nr4a1, Nr4a2, Pcdh10, and Srxn1). […] The set of 10 IEGs was used since even though all of the IEGs were specific to acute activation by odors, they were still only detected in a minority of cells due to the sparse nature of scSeq. […]

Molecule: CCCCC=O [Pentanal]
- breadth of responses across the population of glomeruli (olfactory bulb glomeruli): broadest responses across the population of glomeruli

- mean total count normalized expression of 9 IEGs in OSNs expressing OR10A6 vs other ORs (OR10A6 [1]): much higher IEG expression
Molecule: OCCc1ccccc1 [2-phenylethanol]
- activation of OR10A6 in vitro (OR10A6 [2]): activated

Molecule: 2-hydroxyacetophenone
- binding to the M72 receptor relative to acetophenone (M72 receptor): binds more strongly to the M72 receptor
- activation scores in OSNs expressing M72 (M72 (Olfr160)): higher activation scores than acetophenone

- z-scored expression of 10 immediate early genes (IEGs) for each OSN subtype, odor vs control ([3]; odor vs control (DPG) conditions): higher in the odor conditions
Molecule: CCCCCCCC=O [octanal]
- overlap between ORs activated by ACE and OCT, odds ratio ([3]; Fisher's exact test, overlap at chance levels): 1.42
